In article PMC3216923 (2011) one finds K ass data, which are given here for one molecule.

What all share (assay): isothermal titration calorimetry
For orientation: In ITC the heat of successive injections is recorded.

In assay [1] the test system is TelQ (DNA, G4) TTAGGGTTAGGGTTAGGGTTAGGG
As to conditions: 10 mM Na phosphate, pH 6.5, 25°C.

The subject of assay [2] is dsDNA (DNA, duplex) TTAGGGTTAGGGTTAGGGTTAGGG/CCCTAACCCTAACCCTAACCCTAA
As to conditions: 100 mM NaCl or 100 mM KCl (not specified), Na+ 10 mM (Na phosphate), pH 6.5, 25°C.

The test system of assay [3] is TelM (DNA, single strand) TTAGGGTTAGAGTTAGGGTTAGGG
To be noted: 100 mM NaCl; 10 mM Na phosphate, pH 6.5, 25°C; site 1 of 2.

Take `CC(=N)NCCNc1c2c(c(NCCNC(C)=N)c3sccc13)C(=O)c1ccccc1C2=O`: the K ass in assay [1] (100 mM KCl, text prints 1.0±0.15 × 10^7) is recorded as 10.6±1.7 × 10^6 M^-1; in assay [1] (100 mM NaCl), 0.9±0.1 × 10^6 M^-1; in assay [2], 2.2±0.1 × 10^6 M^-1; in assay [3], 200±70 × 10^6 M^-1.
